Legend:
Serumlipoproteine = test: Chronic test in male rats: 7 daily oral doses, serum lipoproteins separated by preparative ultracentrifugation; format: in vivo, Ratte; settings: for Vasoprotektiv Index HDL-C LDL-C: HDL-Cholesterin : LDL-Cholesterin, Kontrolle 3,24
Source text: Die Hemmung der hepatischen Cholesterinbiosynthese hat Auswirkungen auf die Verminderung von Serum-Lipiden, wie im chronischen Versuch an der männlichen Ratte nachgewiesen werden konnte (Tabelle 2).
Gruppen männlicher Ratten des Stammes HOE: WISKf (SPF 71) mit einem Ausgangsgewicht von etwa 240 g erhielten täglich morgens die erfindungsgemäßen Verbindungen in Polyethylenglykol 400 per
Schlundsonde, wobei die jeweilige Kontrollgruppe nur das Vehikel erhielt. 24 Stunden nach der letzten (7.) Applikation und nach 24 Stunden Futterentzug wurde Blut entnommen und im gewonnen Serum die Lipoproteine aus dem Pool einer Rattengruppe mittels der präparativen Ultrazentrifugentechnik getrennt. Hierbei wurden folgende Dichtegrenzen für die Trennung von VLDL, LDL und HDL benutzt:
• VLDL = very low density lipoprotein • LDL = low density lipoprotein • HDL = high density lipoprotein
Für die Bestimmung des Cholesterins und der Triglyceride wurden vollenzymatische Methoden nach Boehringer/Mannheim benutzt, für die Bestimmung des Proteins die Methode von Lowry et al. J. Biol. Chem., 193, 265 (1951) herangezogen. […] Daraus resultiert eine Erhöhung des vasoprotektiven Index (HDL-Cholesterin : LDL-Cholesterin) mit einer ca. 8-fach höheren Potency als Clofibrat.

HEP-G2-Zellen = test: Inhibition of cholesterol biosynthesis: incorporation of 14C sodium acetate into cholesterol in HEP-G2 cell monolayers; format: cell-based; settings: Homo sapiens; for inhibition at 0.1 µM: HepG2, Konzentration im Medium 10^-7 M; for inhibition at 0.0025 µM: HepG2, Konzentration im Medium 2,5·10^-9 M
Source text: Hemmung der Cholesterin Biosynthese
Die Hemmung der Cholesterin Biosynthese durch die erfindungsgemäßen Verbindungen wurde in Zellkulturversuchen mit HEP-G2-Zellen über die Wirkung auf den Einbau von ^14C-Natriumacetat in Cholesterin nachgewiesen. Dazu wurden Monolayers von HEP-G2-Zellen in lipoproteinfreiem Nährmedium mit entsprechenden Konzentrationen der erfindungsgemäßen Verbindungen eine Stunde vorinkubiert; nach Zugabe des^14C markierten Präkursors ^14C-Natriumacetat wurde die Inkubation für 3 Stunden fortgesetzt. Danach wurde ein Teil der Zellen alkalisch verseift, nach vorheriger Zugabe eines internen Standards von ^3H-Cholesterin. Die Lipide der verseiften Zellen wurden mit Chloroform-Methanol extrahiert. Dieses Lipidgemisch wurde nach Zusatz von Trägercholesterin präparativ dünnschichtchromatographisch getrennt, die Cholesterinbande nach dem Sichtbarmachen isoliert und die aus dem 14C-Präkursor gebildete Menge '^4C-Cholesterin szintigraphisch bestimmt. In einem aliquoten Teil der Zellen wurde Zellprotein bestimmt, so daß die in der Zeiteinheit pro mg Zellprotein aus 14C-Präkursor gebildete Menge an ^14C-Cholesterin berechnet werden konnte. Zum Vergleich für die Hemmwirkung einer zugesetzten erfindungsgemäßen Verbindung diente die Kontrolle, so daß direkt die Hemmung der Cholesterinbiosynthese bei einer bestimmten molaren Konzentration der erfindungsgemäßen Verbindung im Medium angegeben werden konnte. Zur Beurteilung der Wirkungstärke der erfindungsgemäßen Verbindungen wurde die Hemmwirkung von Lovastatin im selben Versuchsansatz bestimmt. In aliquoten Anteilen der Zellkultur wurde die Intaktheit der Zellkultur und die fehlende Zellschädigung durch Einwirkung der erfindungsgemäßen Verbindung morphologisch (Lichtmikroskop) beurteilt und biochemisch durch Bestimmung des Release von Laktat-Dehydrogenase ins Inkubationsmedium gemessen.
Das Ergebnis dieser Untersuchung ist in Tabelle 2 wiedergegeben. Die Wirkung der erfindungsgemäßen Substanzen als Cholesterin-Biosynthese-Hemmer ist deutlich zu erkennen. In den geprüften Konzentrationen hatten die erfindungsgemäßen Verbindungen im Zeitraum von 4 Stunden keine cytotoxische Wirkung.

[1] = read-out: % Cholesterin-Biosynthese-Hemmung

SMILES: CCOC(=O)C(C)(C)Oc1ccc(Cl)cc1 [Clofibrat, reference compound]
- Beeinflussung der Serumlipoproteine im Vergleich zur Kontrollgruppe in % HDL-C (Serumlipoproteine; 100 mg/kg/Tag oral, 7 days): -36%
- Beeinflussung der Serumlipoproteine im Vergleich zur Kontrollgruppe in % HDL-Protein (Serumlipoproteine; 100 mg/kg/Tag oral, 7 days): -14%
- Beeinflussung der Serumlipoproteine im Vergleich zur Kontrollgruppe in % LDL-C (Serumlipoproteine; 100 mg/kg/Tag oral, 7 days): -47%
- Beeinflussung der Serumlipoproteine im Vergleich zur Kontrollgruppe in % LDL-Protein (Serumlipoproteine; 100 mg/kg/Tag oral, 7 days): -13%
- Beeinflussung der Serumlipoproteine im Vergleich zur Kontrollgruppe in % VLDL-C (Serumlipoproteine; 100 mg/kg/Tag oral, 7 days): -56%
- Vasoprotektiv Index HDL-C LDL-C (Serumlipoproteine; 100 mg/kg/Tag oral, 7 days): 3,87

SMILES: CC(=O)OC1CC(=O)CC(=O)OC(C)CC2OC12 (centres unmarked) [II.1]
- inhibition at 0.1 µM (HEP-G2-Zellen; [1]): 13%

SMILES: CC1CC2OC2C(OC(=O)c2ccccc2)CC(=O)CC(=O)O1 (centres unmarked) [II.3]
- Beeinflussung der Serumlipoproteine im Vergleich zur Kontrollgruppe in % HDL-C (Serumlipoproteine; 30 mg/kg/Tag oral, 7 days): +22%
- Beeinflussung der Serumlipoproteine im Vergleich zur Kontrollgruppe in % LDL-C (Serumlipoproteine; 30 mg/kg/Tag oral, 7 days): -19%
- Beeinflussung der Serumlipoproteine im Vergleich zur Kontrollgruppe in % LDL-Protein (Serumlipoproteine; 30 mg/kg/Tag oral, 7 days): -14%
- Beeinflussung der Serumlipoproteine im Vergleich zur Kontrollgruppe in % VLDL-C (Serumlipoproteine; 30 mg/kg/Tag oral, 7 days): -21%
- Vasoprotektiv Index HDL-C LDL-C (Serumlipoproteine; 30 mg/kg/Tag oral, 7 days): 4,88
- Wirkung auf LDL, VLDL und HDL-Fraktion (in words) (Serumlipoproteine; 7-tägige orale Applikation, lower dose than Clofibrat): deutlichen Verminderung von LDL und VLDL, bei Erhöhung der HDL-Fraktion
- Verträglichkeit (Anwendung der Substanz von den Ratten vertragen) (Serumlipoproteine; 7 days oral): anstandslos vertragen
- Hepatomegalie (Serumlipoproteine; 7 days oral, in contrast to Clofibrat): keine Hepatomegalie
- Erhöhung des vasoprotektiven Index (HDL-Cholesterin : LDL-Cholesterin): höhere Potency als Clofibrat (Serumlipoproteine; relative to Clofibrat, 7 days oral): ca. 8 -fach

SMILES: CC1CC2OC2C(OC(=O)Nc2ccccc2)CC(=O)CC(=O)O1 (centres unmarked) [II.4, 2,4-Dioxo-10-methyl-1-oxa-6-(phenyl-amino-carbonyl-oxy)-7-cyclodecenoxid]
- inhibition at 0.1 µM (HEP-G2-Zellen; [1]): 68%

SMILES: CCC(=O)OC1CC(=O)CC(=O)OC(C)CC2OC12 (centres unmarked) [II.8]
- inhibition at 0.0025 µM (HEP-G2-Zellen; [1]): 51%
- inhibition at 0.1 µM (HEP-G2-Zellen; [1]): 69%

SMILES: CC(C)CC(=O)OC1CC(=O)CC(=O)OC(C)CC2OC12 (centres unmarked) [II.10]
- inhibition at 0.0025 µM (HEP-G2-Zellen; [1]): 48%
- inhibition at 0.1 µM (HEP-G2-Zellen; [1]): 59%

SMILES: CCCCC(=O)OC1CC(=O)CC(=O)OC(C)CC2OC12 (centres unmarked) [II.11, 6-Butylcarbonyloxy-2,4-dioxo-10-methyl-1-oxa-7-cyclodecenoxid]
- inhibition at 0.0025 µM (HEP-G2-Zellen; [1]): 57%
- inhibition at 0.1 µM (HEP-G2-Zellen; [1]): 73%

SMILES: CCCCCC(=O)OC1CC(=O)CC(=O)OC(C)CC2OC12 (centres unmarked) [II.13]
- inhibition at 0.01 µM (HEP-G2-Zellen; HepG2, Konzentration im Medium 10^-8 M, read-out: % Cholesterin-Biosynthese-Hemmung): 44%
- inhibition at 0.001 µM (HEP-G2-Zellen; HepG2, Konzentration im Medium 10^-9 M, read-out: % Cholesterin-Biosynthese-Hemmung): 37%

SMILES: CC[C@H](C)C(=O)O[C@H]1C[C@@H](C)C=C2C=C[C@H](C)[C@H](CC[C@@H]3C[C@@H](O)CC(=O)O3)[C@H]21 [Lovastatin, reference compound]
- IC50 (HEP-G2-Zellen; HepG2, Lovastatin in the same experimental run as the substance of the row, read-out: Vergleichsreihe für Lovastatin im selben Versuchsansatz IC50): 10 nM

— patent EP0431480A2, “Substituted 10-ring-lactones, process for their preparation and their use” (HOECHST AKTIENGESELLSCHAFT, priority 1989, dated 1991)
